We go through ten molecules from PubChem BioAssay (NCI).

SMILES strings stand for the structures.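 A five-concentration, 48-hour dose response in 96-well plates underlies each endpoint, interpolated linearly between surrounding concentrations. Abbreviation: GI50, concentration required for 50% inhibition of growth. The concentration for full growth arrest is given as TGI.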

The subject of the first assay is OVCAR-5 ovarian. The assay can be described thus: NCI anticancer screen, dose series, 48 h.
As to `O=C1CC(O)c2c1csc2Br` (configuration not stated), the TGI was more than 100 µM.
`CCCCCCCCCC[C@@H](O)[C@H]1CC[C@H]([C@H]2CC[C@H]([C@H](O)CCCCCCCCCC[C@@H]3CC(CC(C)=O)C(=O)O3)O2)O1` (some centres not stated) registered a TGI of more than 50 µM.
Still for that read-out and setting: the result for `CCOC(=O)c1cc2c([N+](=O)[O-])c(NC(C)=O)ccc2s1` reads more than 100 µM; that for `Cc1ccc2c(c1C)CC1(Cc3c(ccc4c3CCC4)C1=O)C2=O` (configuration not stated), more than 100 µM.
Still for that read-out and setting: the result for `CCC(=O)C(c1ccccc1)c1ccccn1` (configuration not stated) reads more than 100 µM; that for `CCCN=C1CC(C)Nc2ccccc2N1` (configuration not stated), more than 100 µM; that for `COC(=O)C1=C(C(=O)OC)C2OC1C1C2C2(C)C(C)=C(C)C1(C)S2=O` (configuration not stated), 38.8 µM.
The same measure, in the same setting: as for `C=CCN(CC=C)Cn1c(=S)sc2ccccc21`, the figure is more than 100 µM; as for `CC[C@@H]1CC[C@@H]2[C@H](CC[C@]3(C)[C@@H](O)CC[C@@H]23)[C@H]1C(=O)O`, more than 100 µM.
As to `CCOC(=O)c1c(NC(=O)c2ccccc2)sc2c1CCCC2`, the TGI was more than 100 µM.

The subject of a further assay is BT-549 breast. Put plainly: NCI anticancer screen, dose series, 48 h.
`O=C1CC(O)c2c1csc2Br` (configuration not stated) registered a TGI of 52.9 µM.
The same measure, in the same setting: as for `CCCCCCCCCC[C@@H](O)[C@H]1CC[C@H]([C@H]2CC[C@H]([C@H](O)CCCCCCCCCC[C@@H]3CC(CC(C)=O)C(=O)O3)O2)O1` (some centres not stated), the figure is more than 50 µM; as for `CCOC(=O)c1cc2c([N+](=O)[O-])c(NC(C)=O)ccc2s1`, more than 100 µM.
The same measure, in the same setting: as for `Cc1ccc2c(c1C)CC1(Cc3c(ccc4c3CCC4)C1=O)C2=O` (configuration not stated), the figure is more than 100 µM; as for `CCC(=O)C(c1ccccc1)c1ccccn1` (configuration not stated), more than 100 µM; as for `CCCN=C1CC(C)Nc2ccccc2N1` (configuration not stated), more than 100 µM.
On the same count and under the same terms, as for `COC(=O)C1=C(C(=O)OC)C2OC1C1C2C2(C)C(C)=C(C)C1(C)S2=O` (configuration not stated), the figure is 25.1 µM; as for `C=CCN(CC=C)Cn1c(=S)sc2ccccc21`, more than 100 µM.
For `CC[C@@H]1CC[C@@H]2[C@H](CC[C@]3(C)[C@@H](O)CC[C@@H]23)[C@H]1C(=O)O`, the TGI was more than 100 µM.
Still for that read-out and setting: the result for `CCOC(=O)c1c(NC(=O)c2ccccc2)sc2c1CCCC2` reads more than 100 µM.

The test system of the next assay is 786-0 renal. The assay can be described thus: NCI anticancer screen, dose series, 48 h.
`O=C1CC(O)c2c1csc2Br` (configuration not stated) came in with a TGI of 51.1 µM.
Regarding `CCCCCCCCCC[C@@H](O)[C@H]1CC[C@H]([C@H]2CC[C@H]([C@H](O)CCCCCCCCCC[C@@H]3CC(CC(C)=O)C(=O)O3)O2)O1` (some centres not stated), the TGI was more than 50 µM.
Take `CCOC(=O)c1cc2c([N+](=O)[O-])c(NC(C)=O)ccc2s1`: the TGI is more than 100 µM.
Still for that read-out and setting: the result for `Cc1ccc2c(c1C)CC1(Cc3c(ccc4c3CCC4)C1=O)C2=O` (configuration not stated) reads more than 100 µM; that for `CCC(=O)C(c1ccccc1)c1ccccn1` (configuration not stated), more than 100 µM.
On the same count and under the same terms, the result for `CCCN=C1CC(C)Nc2ccccc2N1` (configuration not stated) reads more than 100 µM.
Same read-out and setting: the result for `COC(=O)C1=C(C(=O)OC)C2OC1C1C2C2(C)C(C)=C(C)C1(C)S2=O` (configuration not stated) reads 20.2 µM; that for `C=CCN(CC=C)Cn1c(=S)sc2ccccc21`, more than 100 µM; that for `CC[C@@H]1CC[C@@H]2[C@H](CC[C@]3(C)[C@@H](O)CC[C@@H]23)[C@H]1C(=O)O`, more than 100 µM.
With `CCOC(=O)c1c(NC(=O)c2ccccc2)sc2c1CCCC2`, the TGI was more than 100 µM.

In a further assay the test system is HS 578T breast. Put plainly: NCI anticancer screen, dose series, 48 h.
Molecule `O=C1CC(O)c2c1csc2Br` (configuration not stated) came in with a TGI of 72.4 µM.
With `CCCCCCCCCC[C@@H](O)[C@H]1CC[C@H]([C@H]2CC[C@H]([C@H](O)CCCCCCCCCC[C@@H]3CC(CC(C)=O)C(=O)O3)O2)O1` (some centres not stated), the GI50 is 8.36 µM and the TGI was more than 50 µM.
Consider `CCOC(=O)c1cc2c([N+](=O)[O-])c(NC(C)=O)ccc2s1`, for which the TGI is more than 100 µM.
Same read-out and setting: as for `Cc1ccc2c(c1C)CC1(Cc3c(ccc4c3CCC4)C1=O)C2=O` (configuration not stated), the figure is more than 100 µM; as for `CCC(=O)C(c1ccccc1)c1ccccn1` (configuration not stated), more than 100 µM; as for `CCCN=C1CC(C)Nc2ccccc2N1` (configuration not stated), more than 100 µM.
The same measure, in the same setting: the result for `COC(=O)C1=C(C(=O)OC)C2OC1C1C2C2(C)C(C)=C(C)C1(C)S2=O` (configuration not stated) reads 51.4 µM; that for `C=CCN(CC=C)Cn1c(=S)sc2ccccc21`, more than 100 µM.
On the same count and under the same terms, as for `CC[C@@H]1CC[C@@H]2[C@H](CC[C@]3(C)[C@@H](O)CC[C@@H]23)[C@H]1C(=O)O`, the figure is more than 100 µM; as for `CCOC(=O)c1c(NC(=O)c2ccccc2)sc2c1CCCC2`, more than 100 µM.

The test system of another assay is ACHN renal. The assay can be described thus: NCI anticancer screen, dose series, 48 h.
Turning to `O=C1CC(O)c2c1csc2Br` (configuration not stated), the TGI is 45.4 µM.
For `CCCCCCCCCC[C@@H](O)[C@H]1CC[C@H]([C@H]2CC[C@H]([C@H](O)CCCCCCCCCC[C@@H]3CC(CC(C)=O)C(=O)O3)O2)O1` (some centres not stated), the GI50 was 0.422 µM and the TGI was more than 50 µM.
For the molecule `CCOC(=O)c1cc2c([N+](=O)[O-])c(NC(C)=O)ccc2s1`, the TGI is more than 100 µM.
The same measure, in the same setting: the result for `Cc1ccc2c(c1C)CC1(Cc3c(ccc4c3CCC4)C1=O)C2=O` (configuration not stated) reads more than 100 µM.
On to `CCC(=O)C(c1ccccc1)c1ccccn1` (configuration not stated), for which the TGI is more than 100 µM.
Same read-out and setting: the result for `CCCN=C1CC(C)Nc2ccccc2N1` (configuration not stated) reads more than 100 µM; that for `COC(=O)C1=C(C(=O)OC)C2OC1C1C2C2(C)C(C)=C(C)C1(C)S2=O` (configuration not stated), 12.9 µM; that for `C=CCN(CC=C)Cn1c(=S)sc2ccccc21`, more than 100 µM.
Regarding `CC[C@@H]1CC[C@@H]2[C@H](CC[C@]3(C)[C@@H](O)CC[C@@H]23)[C@H]1C(=O)O`, the TGI was more than 100 µM.
The same measure, in the same setting: as for `CCOC(=O)c1c(NC(=O)c2ccccc2)sc2c1CCCC2`, the figure is more than 100 µM.

The test system of another assay is DU-145 prostate. Put plainly: NCI anticancer screen, dose series, 48 h.
In the case of `O=C1CC(O)c2c1csc2Br` (configuration not stated), the TGI amounted to 88 µM.
`CCCCCCCCCC[C@@H](O)[C@H]1CC[C@H]([C@H]2CC[C@H]([C@H](O)CCCCCCCCCC[C@@H]3CC(CC(C)=O)C(=O)O3)O2)O1` (some centres not stated) came in with a TGI of more than 50 µM.
Still for that read-out and setting: as for `CCOC(=O)c1cc2c([N+](=O)[O-])c(NC(C)=O)ccc2s1`, the figure is more than 100 µM; as for `Cc1ccc2c(c1C)CC1(Cc3c(ccc4c3CCC4)C1=O)C2=O` (configuration not stated), more than 100 µM; as for `CCC(=O)C(c1ccccc1)c1ccccn1` (configuration not stated), more than 100 µM.
